Measured values from ChEMBL document CHEMBL1201862, “PubChem BioAssay data set” (2004).
The source made the active and inactive calls.

Legend:
Assay type in all cases: functional
[1] = molecular target: Dual specificity mitogen-activated protein kinase kinase 1 (Homo sapiens, UniProt Q02750); test: Navigating the Kinome. Panel member name: MAP2K1
[2] = molecular target: Dual specificity tyrosine-phosphorylation-regulated kinase 1A (Homo sapiens, UniProt Q13627);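 note: measured against DYRK1A as one member of a broad kinome profiling panel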
[3] = molecular target: Hepatocyte growth factor receptor (Homo sapiens, UniProt P08581);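 note: kinase panel profiling across the kinome, with MET as the panel member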
[4] = molecular target: Dual specificity tyrosine-phosphorylation-regulated kinase 1B (Homo sapiens, UniProt Q9Y463); test: Navigating the Kinome. Panel member name: DYRK1B
[5] = molecular target: Mitogen-activated protein kinase 8 (Homo sapiens, UniProt P45983);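 note: value comes from one member of a kinome-wide kinase profiling panel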
[6] = molecular target: Tyrosine-protein kinase receptor TYRO3 (Homo sapiens, UniProt Q06418);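 note: TYRO3 value obtained as one member of a kinome-wide profiling panel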
[7] = molecular target: Macrophage-stimulating protein receptor (Homo sapiens, UniProt Q04912); test: Navigating the Kinome. Panel member name: MST1R
[8] = molecular target: Dual specificity protein kinase CLK4 (Homo sapiens, UniProt Q9HAZ1)
[9] = molecular target: Calcium/calmodulin-dependent protein kinase type II subunit alpha (Homo sapiens, UniProt Q9UQM7); test: Navigating the Kinome. Panel member name: CAMK2A
[10] = molecular target: 5'-AMP-activated protein kinase catalytic subunit alpha-1 (Homo sapiens, UniProt Q13131)
[11] = molecular target: Cyclin-dependent kinase 8 (Homo sapiens, UniProt P49336); test: Navigating the Kinome. Panel member name: CDK8
Aurora kinase A = Aurora kinase A (Homo sapiens, UniProt O14965);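 note: value from the Navigating the Kinome kinase panel profiling, panel entry STK6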
[12] = molecular target: Platelet-derived growth factor receptor beta (Homo sapiens, UniProt P09619);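 note: value comes from a kinome panel, with PDGFRB tested as one panel member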
[13] = molecular target: Tyrosine-protein kinase JAK3 (Homo sapiens, UniProt P52333)
LIM domain kinase 1 = LIM domain kinase 1 (Homo sapiens, UniProt P53667); test: Navigating the Kinome. Panel member name: LIMK1
[14] = molecular target: Tyrosine-protein kinase JAK2 (Homo sapiens, UniProt O60674);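 note: JAK2 tested as one member of a kinase panel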
[15] = molecular target: Cyclin-dependent kinase 9 (Homo sapiens, UniProt P50750);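 note: value from the CDK9 entry of a kinome-spanning kinase panel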
[16] = molecular target: Fibroblast growth factor receptor 1 (Homo sapiens, UniProt P11362)
Activated CDC42 kinase 1 = Activated CDC42 kinase 1 (Homo sapiens, UniProt Q07912); test: Navigating the Kinome. Panel member name: ACK1
[17] = molecular target: Serine/threonine-protein kinase pim-1 (Homo sapiens, UniProt P11309)
[18] = molecular target: Receptor-type tyrosine-protein kinase FLT3 (Homo sapiens, UniProt P36888);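 note: FLT3 was tested as one member of a kinome-wide kinase panel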
Focal adhesion kinase 1 = Focal adhesion kinase 1 (Homo sapiens, UniProt Q05397);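 note: measured as one member of a kinome panel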
[19] = molecular target: cAMP-dependent protein kinase catalytic subunit alpha (Homo sapiens, UniProt P17612)
[20] = molecular target: Proto-oncogene tyrosine-protein kinase receptor Ret (Homo sapiens, UniProt P07949);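 note: measured within a kinome-wide profiling panel, RET as the panel member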
[21] = molecular target: Serine/threonine-protein kinase Chk1 (Homo sapiens, UniProt O14757);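 note: measured as one member of a kinome-wide kinase profiling panel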
[22] = molecular target: ALK tyrosine kinase receptor (Homo sapiens, UniProt Q9UM73);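 note: ALK tested as one member of a kinase panel screen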
[23] = molecular target: Leukocyte tyrosine kinase receptor (Homo sapiens, UniProt P29376); test: Navigating the Kinome. Panel member name: LTK
[24] = molecular target: Dual specificity mitogen-activated protein kinase kinase 2 (Homo sapiens, UniProt P36507); test: Navigating the Kinome. Panel member name: MAP2K2
[25] = molecular target: Vascular endothelial growth factor receptor 1 (Homo sapiens, UniProt P17948);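 note: measured within a kinome-wide profiling panel, FLT1 as the panel member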
[26] = molecular target: Glycogen synthase kinase-3 beta (Homo sapiens, UniProt P49841);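 note: value comes from a broad kinome profiling panel, with GSK3B as the panel member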
[27] = molecular target: Serine/threonine-protein kinase TAO1 (Homo sapiens, UniProt Q7L7X3)
[28] = molecular target: Cyclin-dependent kinase 7 (Homo sapiens, UniProt P50613);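 note: value comes from a kinome-wide kinase profiling panel in which CDK7 is one member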
[29] = molecular target: Macrophage colony-stimulating factor 1 receptor (Homo sapiens, UniProt P07333);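 note: value comes from the Navigating the Kinome screening panel, CSF1R member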

Serine/threonine-protein kinase pim-1, sequence (P11309 whole entry): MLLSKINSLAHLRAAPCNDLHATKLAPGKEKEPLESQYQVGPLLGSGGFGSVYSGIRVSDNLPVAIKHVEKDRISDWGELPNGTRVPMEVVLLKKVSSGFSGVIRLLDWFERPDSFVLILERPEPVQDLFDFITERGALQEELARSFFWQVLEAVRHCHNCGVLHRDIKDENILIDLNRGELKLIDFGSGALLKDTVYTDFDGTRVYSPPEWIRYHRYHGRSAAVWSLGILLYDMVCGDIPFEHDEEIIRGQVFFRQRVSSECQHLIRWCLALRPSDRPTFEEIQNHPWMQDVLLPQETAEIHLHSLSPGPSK
Dual specificity mitogen-activated protein kinase kinase 1, sequence (Q02750 whole entry): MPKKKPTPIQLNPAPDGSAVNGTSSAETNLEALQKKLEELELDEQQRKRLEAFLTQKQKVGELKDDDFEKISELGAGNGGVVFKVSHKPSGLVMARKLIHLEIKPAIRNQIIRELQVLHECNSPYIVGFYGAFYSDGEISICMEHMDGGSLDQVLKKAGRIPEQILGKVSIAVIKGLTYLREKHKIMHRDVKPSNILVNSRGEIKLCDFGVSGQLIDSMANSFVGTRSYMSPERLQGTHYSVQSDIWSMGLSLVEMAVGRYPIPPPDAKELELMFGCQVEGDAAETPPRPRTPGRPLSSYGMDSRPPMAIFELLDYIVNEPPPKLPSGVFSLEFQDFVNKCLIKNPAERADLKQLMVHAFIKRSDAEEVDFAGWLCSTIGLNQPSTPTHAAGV
Tyrosine-protein kinase receptor TYRO3, sequence (Q06418 whole entry): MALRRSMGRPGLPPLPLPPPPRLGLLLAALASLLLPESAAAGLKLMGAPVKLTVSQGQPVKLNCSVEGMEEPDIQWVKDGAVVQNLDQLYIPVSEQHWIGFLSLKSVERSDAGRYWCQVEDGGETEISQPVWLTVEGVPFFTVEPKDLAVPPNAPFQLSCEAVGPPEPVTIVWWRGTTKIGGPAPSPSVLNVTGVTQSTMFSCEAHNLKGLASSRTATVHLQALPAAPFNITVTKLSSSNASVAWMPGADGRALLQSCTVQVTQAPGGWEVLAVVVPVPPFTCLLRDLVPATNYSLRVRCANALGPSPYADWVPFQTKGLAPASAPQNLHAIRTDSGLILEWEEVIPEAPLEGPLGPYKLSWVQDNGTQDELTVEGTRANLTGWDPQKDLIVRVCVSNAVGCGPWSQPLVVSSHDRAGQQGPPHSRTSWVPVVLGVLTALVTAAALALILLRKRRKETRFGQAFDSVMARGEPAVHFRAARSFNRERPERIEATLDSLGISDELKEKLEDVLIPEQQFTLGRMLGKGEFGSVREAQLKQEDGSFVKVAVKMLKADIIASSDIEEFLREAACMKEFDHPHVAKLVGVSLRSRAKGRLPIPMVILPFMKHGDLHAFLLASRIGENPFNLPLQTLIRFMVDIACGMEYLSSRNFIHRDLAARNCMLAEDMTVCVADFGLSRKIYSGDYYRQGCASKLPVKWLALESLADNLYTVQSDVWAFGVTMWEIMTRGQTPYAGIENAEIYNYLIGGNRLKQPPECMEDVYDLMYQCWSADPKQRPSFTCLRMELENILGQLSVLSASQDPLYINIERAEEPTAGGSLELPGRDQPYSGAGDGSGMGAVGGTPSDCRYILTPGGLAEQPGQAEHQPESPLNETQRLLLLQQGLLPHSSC
Proto-oncogene tyrosine-protein kinase receptor Ret, sequence (P07949 whole entry): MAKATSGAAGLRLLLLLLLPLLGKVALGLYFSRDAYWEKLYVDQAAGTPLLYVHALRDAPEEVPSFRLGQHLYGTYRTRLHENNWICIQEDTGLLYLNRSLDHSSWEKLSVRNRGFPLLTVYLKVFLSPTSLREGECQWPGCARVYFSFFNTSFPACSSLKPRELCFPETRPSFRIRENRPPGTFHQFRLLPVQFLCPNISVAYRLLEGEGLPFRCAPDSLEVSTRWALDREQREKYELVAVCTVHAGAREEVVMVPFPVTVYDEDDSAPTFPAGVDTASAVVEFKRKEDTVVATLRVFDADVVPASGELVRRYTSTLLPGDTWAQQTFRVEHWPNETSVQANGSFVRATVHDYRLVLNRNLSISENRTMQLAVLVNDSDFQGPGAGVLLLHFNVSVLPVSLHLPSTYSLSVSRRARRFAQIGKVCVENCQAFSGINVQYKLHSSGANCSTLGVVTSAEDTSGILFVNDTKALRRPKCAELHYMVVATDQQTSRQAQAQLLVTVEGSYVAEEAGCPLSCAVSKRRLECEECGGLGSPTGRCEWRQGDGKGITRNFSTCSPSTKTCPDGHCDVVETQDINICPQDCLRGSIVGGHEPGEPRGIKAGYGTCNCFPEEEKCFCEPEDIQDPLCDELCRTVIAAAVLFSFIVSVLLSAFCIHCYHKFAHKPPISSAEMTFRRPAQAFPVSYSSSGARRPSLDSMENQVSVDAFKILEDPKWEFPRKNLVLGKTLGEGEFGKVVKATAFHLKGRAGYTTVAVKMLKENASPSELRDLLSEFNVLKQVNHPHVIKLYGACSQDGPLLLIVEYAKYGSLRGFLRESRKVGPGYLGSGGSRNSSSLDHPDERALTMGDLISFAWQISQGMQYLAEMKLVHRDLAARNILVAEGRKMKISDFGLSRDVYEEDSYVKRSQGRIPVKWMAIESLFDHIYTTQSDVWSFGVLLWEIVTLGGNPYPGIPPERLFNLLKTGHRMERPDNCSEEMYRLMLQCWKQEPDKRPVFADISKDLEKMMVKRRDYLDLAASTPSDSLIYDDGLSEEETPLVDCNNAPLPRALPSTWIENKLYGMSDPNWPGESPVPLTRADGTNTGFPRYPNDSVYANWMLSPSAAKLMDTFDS
5'-AMP-activated protein kinase catalytic subunit alpha-1, sequence (Q13131 whole entry): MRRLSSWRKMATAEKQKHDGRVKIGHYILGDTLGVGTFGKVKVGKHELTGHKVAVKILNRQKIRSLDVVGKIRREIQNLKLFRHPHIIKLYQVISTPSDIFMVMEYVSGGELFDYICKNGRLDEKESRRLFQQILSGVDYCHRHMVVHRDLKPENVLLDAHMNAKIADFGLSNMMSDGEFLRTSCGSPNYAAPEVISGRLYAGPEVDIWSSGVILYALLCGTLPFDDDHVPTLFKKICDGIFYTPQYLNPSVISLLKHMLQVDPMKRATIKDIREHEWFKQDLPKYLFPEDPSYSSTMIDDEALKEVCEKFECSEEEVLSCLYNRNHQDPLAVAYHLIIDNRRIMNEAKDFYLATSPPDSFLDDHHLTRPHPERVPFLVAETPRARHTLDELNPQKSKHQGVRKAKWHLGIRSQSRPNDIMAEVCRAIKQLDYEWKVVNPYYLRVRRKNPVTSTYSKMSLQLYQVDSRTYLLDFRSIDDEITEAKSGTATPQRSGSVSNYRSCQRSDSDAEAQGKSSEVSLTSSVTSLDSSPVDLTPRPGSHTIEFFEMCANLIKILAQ
Tyrosine-protein kinase JAK3, sequence (P52333 whole entry, the tested form may be a part): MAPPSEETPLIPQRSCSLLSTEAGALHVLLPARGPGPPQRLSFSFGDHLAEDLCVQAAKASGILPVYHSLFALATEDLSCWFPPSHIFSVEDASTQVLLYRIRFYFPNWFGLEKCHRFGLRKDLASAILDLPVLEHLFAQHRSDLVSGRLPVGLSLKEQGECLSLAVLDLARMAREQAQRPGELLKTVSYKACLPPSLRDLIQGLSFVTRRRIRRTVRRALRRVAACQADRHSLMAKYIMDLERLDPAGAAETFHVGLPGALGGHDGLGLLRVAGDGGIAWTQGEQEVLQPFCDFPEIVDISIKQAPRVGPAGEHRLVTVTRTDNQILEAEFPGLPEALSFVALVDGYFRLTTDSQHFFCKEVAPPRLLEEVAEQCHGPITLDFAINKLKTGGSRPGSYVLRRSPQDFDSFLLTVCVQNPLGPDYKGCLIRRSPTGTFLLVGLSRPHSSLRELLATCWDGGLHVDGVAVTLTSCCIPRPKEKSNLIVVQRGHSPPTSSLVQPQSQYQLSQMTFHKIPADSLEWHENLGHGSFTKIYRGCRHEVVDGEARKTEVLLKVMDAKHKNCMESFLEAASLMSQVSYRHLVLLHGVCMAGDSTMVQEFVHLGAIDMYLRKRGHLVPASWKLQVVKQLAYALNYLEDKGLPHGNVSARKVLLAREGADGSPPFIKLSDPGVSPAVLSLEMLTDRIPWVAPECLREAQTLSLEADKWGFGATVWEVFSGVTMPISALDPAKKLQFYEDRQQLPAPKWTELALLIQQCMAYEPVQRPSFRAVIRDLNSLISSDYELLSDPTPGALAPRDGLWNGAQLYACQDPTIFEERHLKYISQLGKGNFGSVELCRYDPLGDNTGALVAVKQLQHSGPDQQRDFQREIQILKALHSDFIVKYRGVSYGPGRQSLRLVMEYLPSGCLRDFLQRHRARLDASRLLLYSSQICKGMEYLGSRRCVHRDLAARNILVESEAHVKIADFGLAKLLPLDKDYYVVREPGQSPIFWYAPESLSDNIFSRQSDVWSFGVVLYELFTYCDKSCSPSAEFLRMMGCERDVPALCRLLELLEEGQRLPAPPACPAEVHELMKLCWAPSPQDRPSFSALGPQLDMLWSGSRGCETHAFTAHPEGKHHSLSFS
Cyclin-dependent kinase 9, sequence (P50750 whole entry): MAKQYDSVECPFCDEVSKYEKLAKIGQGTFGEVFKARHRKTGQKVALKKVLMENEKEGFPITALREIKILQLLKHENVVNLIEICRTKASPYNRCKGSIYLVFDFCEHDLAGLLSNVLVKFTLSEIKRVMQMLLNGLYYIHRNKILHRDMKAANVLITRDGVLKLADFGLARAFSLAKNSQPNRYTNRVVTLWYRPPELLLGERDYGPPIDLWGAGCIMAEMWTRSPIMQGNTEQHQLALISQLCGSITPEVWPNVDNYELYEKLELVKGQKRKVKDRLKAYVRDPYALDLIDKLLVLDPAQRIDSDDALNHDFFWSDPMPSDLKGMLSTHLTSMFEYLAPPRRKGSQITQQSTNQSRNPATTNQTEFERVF

- Ki [1]: 2510 nM (active)
- Ki [2]: 1000 nM (active)
- Ki [3]: 1000 nM (active)
- Ki [4]: 1260 nM (active)
- Ki [5]: 2510 nM (active)
- Ki [6]: 1260 nM (active)
- Ki [7]: 2510 nM (active)
- Ki [8]: 794 nM (active)
- Ki [9]: 1260 nM (active)
- Ki [10]: 1260 nM (active)
- Ki [11]: 2510 nM (active)
- Ki (Aurora kinase A): 1580 nM (active)
- Ki [12]: 2000 nM (active)
- Ki [13]: 2000 nM (active)
- Ki (LIM domain kinase 1): 1260 nM (active)
- Ki [14]: 2000 nM (active)
- Ki [15]: 1000 nM (active)
- Ki [16]: 1260 nM (active)
- Ki (Activated CDC42 kinase 1): 1000 nM (active)
- Ki [17]: 3980 nM (active)
- Ki [18]: 2000 nM (active)
- Ki (Focal adhesion kinase 1): 5010 nM (active)
- Ki [19]: 1260 nM (active)
- Ki [20]: 1580 nM (active)
- Ki [21]: 794 nM (active)
- Ki [22]: 2000 nM (active)
- Ki [23]: 794 nM (active)
- Ki [24]: 1580 nM (active)
- Ki [25]: 2510 nM (active)
- Ki [26]: 1260 nM (active)
- Ki [27]: 5010 nM (active)
- Ki [28]: 2510 nM (active)
- Ki [29]: 2000 nM (active)
SMILES: CC(=O)Nc1ccc(-n2nc3ccc(N)nc3n2)cc1
